These results are taken from patent US11696921B2, “Synthetic composition for microbiota modulation” (GLYCOM A/S, priority 2015, dated 2023).

Test [1] concerns totality of B. longum + B. bifidum + B. animalis lactis + B. angulatum. Put plainly: Faecal microbiota / Bifidobacterium profiling after 2 weeks' daily HMO consumption by healthy adults. To be noted: oral. It is filed as in vivo, human. How it is done:
(§1) A total of 100 male and female healthy adults are recruited to participate in the study. After a screening visit and run-in period of 1-2 weeks, the participants are selected and randomized into ten groups, each of 10 subjects. One group is administered a placebo product containing 2 grams of glucose. The remaining 9 groups are administered treatment product containing a) 20 g of 2′-FL, b) 10 g of 2′-FL, c) 5 g of 2′-FL, d) 20 g of LNnT, e) 10 g of LNnT, f) 5 g of LNnT, g) 20 g of a 2:1 mixture of 2′-FL and LNnT, h) 10 g of a 2:1 mixture of 2′-FL and LNnT, and i) 5 g of a 2:1 mixture of 2′-FL and LNnT for 2 weeks (the amounts correspond to a daily dose). The placebo and treatment products are in powder form in a unit dosage container.
(§2) At the second visit, eligibility criteria are checked and eligible subjects are randomised to the ten arms in the trial (treatment groups and placebo group). The faecal samples are collected and equipment for new samples are distributed. Participants are familiarised with an interactive internet enabled system which recorded data daily and are provided with either treatment or control products. Subjects are reminded not to change their usual diet during the study. Blood samples are collected for biomarker studies. The faecal samples are stored at −80° C. until analysis.
(§3) The study runs for 2 weeks with the participants consuming either a placebo or a treatment product daily. Participants are instructed to consume the products in the morning with breakfast. Compliance is monitored through the interactive internet enabled system.
(§4) At the end of the study, each participant has an exit visit with the medical team. Faecal samples and blood samples are collected.
(§5) To assess the microbiota profile, DNA is extracted from the faecal samples using a 96-well PowerSoil DNA Isolation Kit (MO-BIO). A minimum of one sample-well per plate is kept empty to serve as a negative control during PCR. PCR is done with the forward primer S-D-Bact-0341-b-S-17 and reverse primer S-D-Bact-0785-a-A-21 (Klindworth et al. Nucleic Acids Res. 41, e1 (2013)) with Illumina adapters attached. These are universal bacterial 16S rDNA primers, which targeted the V3-V4 region. The following PCR program is used: 98° C. for 30 sec, 25× (98° C. for 10 s, 55° C. for 20 s, 72° C. for 20 s), 72° C. for 5 min. Amplification is verified by running the products on a 1% agarose gel. Barcodes are added in a nested PCR using the Nextera Index Kit V2 (Illumina) with the following PCR program: 98° C. for 30 sec, 8× (98° C. for 10 s, 55° C. for 20 s, 72° C. for 20 s), 72° C. for 5 min. Attachment of primers is verified by running the products on a 1% agarose gel. Products from the nested PCR are normalized using the SequalPrep Normalization Plate Kit and pooled. Pooled libraries are concentrated by evaporation and the DNA concentration of pooled libraries is measured on a Qubit fluorometer using the Qubit High Sensitivity Assay Kit (Thermo Fisher Scientific). Sequencing is done on a MiSeq desktop sequencer using the MiSeq Reagent Kit V3 (Illumina) for 2×300 bp paired-end sequencing. The 64-bit version of USEARCH is used for bioinformatical analysis of the sequence data.
(§6) To assess the Bifidobacterium community, ITS profiling of DNA samples is performed according to Milani et al. FEMS Microbiol. Ecol. 90, 493 (2014). […] Both B. adolescentis and B. pseudocatenulatum are members of the B. adolescentis phylogenetic group. It can be seen that oral ingestion of the HMOs clearly increases the abundance of B. adolescentis and/or B. pseudocatenulatum in the microbiota of healthy adults, as well as their relative abundance compared to the totality of other Bifidobacterium species.

In test [2] the test system is B. adolescentis phylogenetic group. The description is as above. It is filed as in vivo, human. The conditions noted are these: oral. On the procedure:
as §1, §2, §3, §4, §5, §6

For the molecule `CC(=O)N[C@H]1[C@H](O[C@H]2[C@@H](O)[C@@H](CO)O[C@@H](O[C@H]3[C@H](O)[C@@H](O)C(O)O[C@@H]3CO)[C@@H]2O)O[C@H](CO)[C@@H](O[C@@H]2O[C@H](CO)[C@H](O)[C@H](O)[C@H]2O)[C@@H]1O` (mixture of isomers) [LNnT, lacto-N-neotetraose], the “percentage increase of totality of B. longum + B. bifidum + B. animalis lactis + B. angulatum in human faeces” value came to 50% in test [1] (5 g daily dose), 130% in test [1] (10 g daily dose) and 105% in test [1] (20 g daily dose). The “percentage increase of B. adolescentis phylogenetic group in human faeces” value in test [2] (5 g daily dose) is reported as 90%; in test [2] (10 g daily dose), 195%; in test [2] (20 g daily dose), 185%.
With 2′-fucosyllactose [2′-FL], the “percentage increase of totality of B. longum + B. bifidum + B. animalis lactis + B. angulatum in human faeces” value was 0% in test [1] (5 g daily dose), 20% in test [1] (10 g daily dose) and 15% in test [1] (20 g daily dose). In addition, the “percentage increase of B. adolescentis phylogenetic group in human faeces” value in test [2] (5 g daily dose) is 50%; in test [2] (10 g daily dose), 325%; in test [2] (20 g daily dose), 120%.
